Marks after values point to notes of the source that are not given here.

For orientation: chromatographic logP means a lipophilicity value derived from retention on a column. Usually logP stands for a log measure of how a compound divides between an organic and an aqueous phase. Read a high logP as a more lipophilic compound.

One data set has as its system Phaedon cochleariae. The data set is described as follows: Example N: Phaedon Test (spray treatment). To be noted: application rate 500 g/ha. Type of data set: in vivo. As for the experimental part:
[table] To produce a suitable preparation of active compound, 1 part by weight of active compound is mixed with the stated amounts of solvents and emulsifier, and the concentrate is diluted with emulsifier-containing water to the desired concentration. Discs of Chinese cabbage (Brassica pekinensis) are sprayed with a preparation of active compound of the desired concentration and, after drying, populated with larvae of the mustard beetle (Phaedon cochleariae).
Molecule `Cc1cc(C)c(C2=C(O)C3(CCC4(CC3)OC(C)C(C)O4)NC2=O)c(C)c1` (mixture of isomers) [Ex. I-1-a-10] gave an activity in % of 100%.

The molecule `Cc1cc(Cl)cc(C)c1C1=C(O)C2(CCC3(CC2)OC(C)C(C)O3)NC1=O` (mixture of isomers) [Ex. I-1-a-30] showed an activity in % of 100%. The molecule `Cc1cc(Cl)cc(C)c1C1=C(O)C2(CCC3(CC2)OCC(C)O3)NC1=O` (mixture of isomers) [Ex. I-1-a-31] came in with an activity in % of 100%.

Turning to `Cc1cc(Br)cc(C)c1C1=C(O)C2(CCC3(CC2)OCC(C)CO3)NC1=O` (mixture of isomers) [Ex. I-1-a-32], the activity in % came to 100%. `Cc1cc(Cl)cc(C)c1C1=C(O)C2(CCC3(CC2)OCC(C)CO3)NC1=O` (mixture of isomers) [Ex. I-1-a-34] displayed an activity in % of 100%. Turning to `Cc1cc(Cl)cc(C)c1C1=C(O)C2(CCC3(CC2)OC(C)CC(C)O3)NC1=O` (mixture of isomers) [Ex. I-1-a-38], the activity in % came to 100%. For the molecule `CCc1cc(Br)cc(C)c1C1=C(O)C2(CCC3(CC2)OC(C)C(C)O3)NC1=O` (mixture of isomers) [Ex. I-1-a-45], the activity in % was determined as 100%.

In the case of `Cc1cc(Br)cc(C)c1C1=C(O)C2(CCC3(CC2)OC(C)C(C)O3)NC1=O` (mixture of isomers) [Ex. I-1-a-46], the activity in % worked out at 100%. `Cc1cc(Br)cc(C)c1C1=C(O)C2(CCC3(CC2)OCC(C)O3)NC1=O` (mixture of isomers) [Ex. I-1-a-47] showed an activity in % of 100%. The same measure, in the same setting: next, `Cc1ccc(-c2ccc(Cl)cc2)c(C)c1C1=C(O)C2(CCC3(CC2)OCC(C)O3)NC1=O` (mixture of isomers) [Ex. I-1-a-51]: 100%; `Cc1ccc(-c2ccc(Cl)cc2)cc1C1=C(O)C2(CCC3(CC2)OCC(C)O3)NC1=O` (mixture of isomers) [Ex. I-1-a-52]: 100%; `CCc1cc(Br)cc(C)c1C1=C(O)C2(CCC3(CC2)OCC(C)O3)NC1=O` (mixture of isomers) [Ex. I-1-a-53]: 100%. `Cc1ccc(-c2ccc(Cl)cc2)cc1C1=C(O)C2(CCC3(CC2)OC(C)C(C)O3)NC1=O` (mixture of isomers) [Ex. I-1-a-54] showed an activity in % of 100%.

The molecule `Cc1cc(Br)cc(C)c1C1=C(O)C2(CCC3(CC2)OC(C)CC(C)O3)NC1=O` (mixture of isomers) [Ex. I-1-a-56] showed an activity in % of 100%. Consider `CCc1cc(Br)cc(C)c1C1=C(O)C2(CCC3(CC2)OC(C)CC(C)O3)NC1=O` (mixture of isomers) [Ex. I-1-a-63], for which the activity in % is on record as 100%. On to `CC1COC2(CCC3(CC2)NC(=O)C(c2cc(-c4ccc(Cl)cc4)ccc2Cl)=C3O)OC1` (mixture of isomers) [Ex. I-1-a-65], for which the activity in % was found to be 100%.

In turn, `Cc1ccc(-c2ccc(Cl)cc2)cc1C1=C(O)C2(CCC3(CC2)OCCC(C)O3)NC1=O` (mixture of isomers) [Ex. I-1-a-66] registered an activity in % of 100%.

For the molecule `COCC1COC2(CCCC3(C2)NC(=O)C(c2c(C)cc(C)cc2C)=C3O)O1` (mixture of isomers) [Ex. I-1-a-71], the activity in % is 100%.

In the case of `CCOC(=O)OC1=C(c2cc(C)ccc2C)C(=O)NC12CCC1(CC2)OCC(C)O1` (mixture of isomers) [Ex. I-1-c-19], the activity in % is given as 100%.

In turn, `CCCC1COC2(CCC3(CC2)NC(=O)C(c2c(C)cc(C)cc2C)=C3O)O1` (single isomer, unassigned) [Ex. I-1-a-9] showed an activity in % of 100%. For the molecule `CCCC1COC2(CCC3(CC2)NC(=O)C(c2c(C)cc(C)cc2C)=C3O)O1` (centres unmarked) [Ex. I-1-a-8], the activity in % amounted to 100%. For `Cc1ccc(-c2ccc(Cl)cc2)cc1C1=C(O)C2(CCC3(CC2)OCCCO3)NC1=O` [Ex. I-1-a-16], the activity in % is recorded as 100%.

In turn, `Cc1cc(Cl)cc(C)c1C1=C(O)C2(CCC3(CC2)OCC(C)(C)CO3)NC1=O` [Ex. I-1-a-20] came in with an activity in % of 100%.

As to `COc1cc(C)cc(C)c1C1=C(O)C2(CCC3(CC2)OCCCO3)NC1=O` [Ex. I-1-a-24], the activity in % turned out to be 100%. For `Cc1ccc(-c2ccc(Cl)cc2)cc1C1=C(O)C2(CCC3(CC2)OCCO3)NC1=O` [Ex. I-1-a-27], the activity in % came to 100%.

Turning to `Cc1cc(Br)cc(C)c1C1=C(O)C2(CCC3(CC2)OCC(C)(C)CO3)NC1=O` [Ex. I-1-a-33], the activity in % was 100%. The same measure, in the same setting: next, `CCc1cc(Br)cc(C)c1C1=C(O)C2(CCC3(CC2)OCCO3)NC1=O` [Ex. I-1-a-39]: 100%; `COc1cc(C)cc(C)c1C1=C(O)C2(CCC3(CC2)OCCO3)NC1=O` [Ex. I-1-a-43]: 100%. As for `O=C1NC2(CCC3(CC2)OCCO3)C(O)=C1c1cc(-c2ccc(Cl)cc2)ccc1Cl` [Ex. I-1-a-49], the activity in % is 100%. `Cc1ccc(C)c(C2=C(O)C3(CCC4(CC3)OCC(C)(C)CO4)NC2=O)c1` [Ex. I-1-a-61] came in with an activity in % of 100%.

For the molecule `CC1(C)COC2(CCC3(CC2)NC(=O)C(c2cc(-c4ccc(Cl)cc4)ccc2Cl)=C3O)OC1` [Ex. I-1-a-64], the activity in % is 100%. On the same count and under the same terms, as for `Cc1ccc(-c2ccc(Cl)cc2)cc1C1=C(O)C2(CCC3(CC2)OCC(C)(C)CO3)NC1=O` [Ex. I-1-a-67], the figure is 100%. On to `Cc1ccc(C)c(C2=C(O)C3(CCC4(CC3)OCCO4)NC2=O)c1` [Ex. I-1-a-68], for which the activity in % stood at 100%.

For `CCOC(=O)OC1=C(c2cc(-c3ccc(Cl)cc3)ccc2C)C(=O)NC12CCC1(CC2)OCCCO1` [Ex. I-1-c-31], the activity in % turned out to be 100%. In turn, `CCOC(=O)OC1=C(c2c(C)cc(C)cc2OC)C(=O)NC12CCC1(CC2)OCCCO1` [Ex. I-1-c-34] displayed an activity in % of 100%.

A further data set deals with Test plants. The experiment in a line: Example U: Pre-emergence Test. The data set is classed as in vivo. The note with it: crop plant; greenhouse, 250 g of a.i./ha, after three weeks; sub-table 3. Here is the method: To produce a suitable preparation of active compound, 1 part by weight of active compound is mixed with the stated amount of solvent, the stated amount of emulsifier is added and the concentrate is diluted with water to the desired concentration.
Seeds of the test plants are sown in normal soil. After about 24 hours, the soil is sprayed with the preparation of active compound such that the particular amounts of active compound desired are applied per unit area. The concentration of the spray liquor is chosen such that the particular amounts of active compound desired are applied in 1000 l of water/ha.
After three weeks, the degree of damage to the plants is rated in % damage in comparison to the development of the untreated control.
The figures denote: • 0%=no effect (like untreated control) • 100%=total destruction
In the case of `Cc1cc(Cl)cc(C)c1C1=C(O)C2(CCC3(CC2)OCCCO3)NC1=O` [Ex. I-1-a-14], the “damage, Sugar beet” value came to 0%.

The same data set, now with this note: greenhouse, 250 g of a.i./ha, after three weeks; sub-table 2.
As to `Cc1cc(Cl)cc(Cl)c1C1=C(O)C2(CCC3(CC2)OCCCO3)NC1=O` [Ex. I-1-a-11], the “damage, Alopecurus” value worked out at 90%; the “damage, Avena fatua” value turned out to be 70%; the “damage, Echinochloa” value was found to be 80%; the “damage, Setaria” value was found to be 90%. Consider `CCOC(=O)OC1=C(c2c(C)cc(Cl)cc2Cl)C(=O)NC12CCC1(CC2)OCCO1` [Ex. I-1-c-4], for which the “damage, Alopecurus” value is reported as 80%; the “damage, Echinochloa” value turned out to be 90%; the “damage, Setaria” value was found to be 99%; the “damage, Sinapis” value is 80%.

The data set is the same for the next values; noted with them: greenhouse, 250 g of a.i./ha, after three weeks; sub-table 3.
Take `Cc1cc(Cl)cc(C)c1C1=C(O)C2(CCC3(CC2)OCCCO3)NC1=O` [Ex. I-1-a-14]: the “damage, Alopecurus” value was 95%; the “damage, Avena fatua” value is listed as 80%; the “damage, Echinochloa” value is given as 80%; the “damage, Setaria” value is 90%.

The data set is the same for the next values; noted with them: greenhouse, 250 g of a.i./ha, after three weeks; sub-table 4.
As to `Cc1cc(Cl)cc(Cl)c1C1=C(O)C2(CCC3(CC2)OCCCO3)NC1=O` [Ex. I-1-a-11], the “damage, Alopecurus” value is given as 80%; the “damage, Echinochloa” value was 80%; the “damage, Setaria” value is 100%.

Test system in a further data set: not listed separately
The experiment in a line: log P determination by HPLC/LC-MS retention times, calibration with alkan-2-ones. The data set is classed as physicochemical. The note with it: HPLC on reversed-phase column (C 18), 43° C., EEC Directive 79/831 Annex V.A8. Here is the method:
In the acidic range, the determination is carried out at pH 2.3 using 0.1% aqueous phosphoric acid and acetonitrile as mobile phases; linear gradient from 10% acetonitrile to 95% acetonitrile.
The determination by LC-MS in the acidic range is carried out at pH 2.7 using 0.1% aqueous formic acid and acetonitrile (comprises 0.1% formic acid) as mobile phases; linear gradient from 10% acetonitrile to 95% acetonitrile.
The determination by LC-MS in the neutral range is carried out at pH 7.8 using 0.001 molar aqueous ammonium bicarbonate solution and acetonitrile as mobile phases; linear gradient from 10% acetonitrile to 95% acetonitrile.
Calibration is carried out using unbranched alkan-2-ones (having 3 to 16 carbon atoms) with known log P values (determination of the log P values by the retention times using linear interpolation between two successive alkanones).
Take `COC(=O)C1(NC(=O)Cc2c(C)cc(C)cc2C)CCC2(CC1)OCCO2` [II-2]: the “log P” value is listed as “log P 2.68”. As for `COC(=O)C1(NC(=O)Cc2c(C)cc(Br)cc2C)CCC2(CC1)OCCO2` [II-7], the “log P” value was “wax log P 2.81*”. In the case of `CCc1cc(C)cc(C)c1CC(=O)NC1(C(=O)OC)CCC2(CC1)OCCO2` [II-8], the “log P” value was “wax log P 2.95*”. The same measure, in the same setting: as for `CCc1cc(Br)cc(C)c1CC(=O)NC1(C(=O)OC)CCC2(CC1)OCCO2` [II-9], the entry is “wax log P 3.19*”; as for `COC(=O)C1(NC(=O)Cc2cc(C)c(C)cc2C)CCC2(CC1)OCCCO2` [II-17], “log P 2.59*”. For the molecule `COC(=O)C1(NC(=O)Cc2c(C)cc(C)cc2OC)CCC2(CC1)OCCCO2` [II-24], the “log P” value was “log P 2.49*”.

Regarding `COC(=O)C1(NC(=O)Cc2cc(-c3ccc(Cl)cc3)ccc2C)CCC2(CC1)OCCO2` [II-31], the “log P” value was “log P 3.47*”. As for `CCc1cc(C)cc(CC)c1CC(=O)NC1(C(=O)OC)CCC2(CC1)OCCO2` [II-32], the “log P” value was “log P 3.28*”. As for `CCc1cc(C)cc(Br)c1CC(=O)NC1(C(=O)OC)CCC2(CC1)OCCO2` [II-36], the “log P” value was “log P 3.04*”.

Still in this data set, the particulars now being: HPLC/LC-MS retention times; printed in the Isomer column of the (I-1-a) table.
On to `CCCC1COC2(CCC3(CC2)NC(=O)C(c2c(C)cc(C)cc2C)=C3O)O1` (centres unmarked) [Ex. I-1-a-8], for which the chromatographic logP was 2.73.

Still in this data set, the particulars now being: printed in the Isomer column of the (I-1-a) table.
On to `CCCC1COC2(CCC3(CC2)NC(=O)C(c2c(C)cc(C)cc2C)=C3O)O1` (single isomer, unassigned) [Ex. I-1-a-9], for which the logP came to 2.78.

The values above are taken from patent US7897543B2, “Spiroketal-substituted cyclic ketoenols” (Bayer CropScience AG, priority 2005, dated 2011).
